Columns and labels:
[1] = MRT in Beagle dog at 1 mg/kg, po by LC-MS/MS analysis; format: ADME, organism-based, Canis lupus familiaris; conditions: in vivo
Canis familiaris [2] = assay: Toxicity in iv dosed Beagle dog assessed as effect on heart rate administered via single dose; format: organism-based, Canis lupus familiaris; conditions: in vivo
Rattus norvegicus = assay: Androgenic activity in castrated CD(SD)IGS rat assessed as prostate weight at 2.5 mg/kg, po bid for 4 days co-treated with testosterone propionate by Harshberger assay relative to control; format: organism-based; conditions: in vivo, 96 h
[3] = MRT in cynomolgus monkey at 1 mg/kg, po by LC-MS/MS analysis; format: ADME, organism-based, Macaca fascicularis; conditions: in vivo
[4] = AUC (0 to 24 hrs) in Beagle dog at 1 mg/kg, po by LC-MS/MS analysis; format: ADME, organism-based, Canis lupus familiaris; design: time < 24 hr, dose 1 mg/kg, route oral; conditions: in vivo
[5] = AUC (0 to 24 hrs) in Crl:CD(SD) rat at 1 mg/kg, po by LC-MS/MS analysis; format: ADME, organism-based; design: dose 1 mg/kg, time < 24 hr, route oral; conditions: in vivo
[6] = Total clearance in Crl:CD(SD) rat at 0.1 mg/kg, iv by LC-MS/MS analysis; format: ADME, organism-based; conditions: in vivo
[7] = Clearance in dog liver microsomes at 1 uM after 60 mins in presence of NADPH by UPLC analysis; format: ADME, Canis lupus familiaris, microsome; conditions: read-out: CLH
[8] = molecular target: T1, Mineralocorticoid receptor (Homo sapiens, UniProt P08235); assay: Binding affinity to MR (unknown origin)
T1 sequence (P08235 whole entry): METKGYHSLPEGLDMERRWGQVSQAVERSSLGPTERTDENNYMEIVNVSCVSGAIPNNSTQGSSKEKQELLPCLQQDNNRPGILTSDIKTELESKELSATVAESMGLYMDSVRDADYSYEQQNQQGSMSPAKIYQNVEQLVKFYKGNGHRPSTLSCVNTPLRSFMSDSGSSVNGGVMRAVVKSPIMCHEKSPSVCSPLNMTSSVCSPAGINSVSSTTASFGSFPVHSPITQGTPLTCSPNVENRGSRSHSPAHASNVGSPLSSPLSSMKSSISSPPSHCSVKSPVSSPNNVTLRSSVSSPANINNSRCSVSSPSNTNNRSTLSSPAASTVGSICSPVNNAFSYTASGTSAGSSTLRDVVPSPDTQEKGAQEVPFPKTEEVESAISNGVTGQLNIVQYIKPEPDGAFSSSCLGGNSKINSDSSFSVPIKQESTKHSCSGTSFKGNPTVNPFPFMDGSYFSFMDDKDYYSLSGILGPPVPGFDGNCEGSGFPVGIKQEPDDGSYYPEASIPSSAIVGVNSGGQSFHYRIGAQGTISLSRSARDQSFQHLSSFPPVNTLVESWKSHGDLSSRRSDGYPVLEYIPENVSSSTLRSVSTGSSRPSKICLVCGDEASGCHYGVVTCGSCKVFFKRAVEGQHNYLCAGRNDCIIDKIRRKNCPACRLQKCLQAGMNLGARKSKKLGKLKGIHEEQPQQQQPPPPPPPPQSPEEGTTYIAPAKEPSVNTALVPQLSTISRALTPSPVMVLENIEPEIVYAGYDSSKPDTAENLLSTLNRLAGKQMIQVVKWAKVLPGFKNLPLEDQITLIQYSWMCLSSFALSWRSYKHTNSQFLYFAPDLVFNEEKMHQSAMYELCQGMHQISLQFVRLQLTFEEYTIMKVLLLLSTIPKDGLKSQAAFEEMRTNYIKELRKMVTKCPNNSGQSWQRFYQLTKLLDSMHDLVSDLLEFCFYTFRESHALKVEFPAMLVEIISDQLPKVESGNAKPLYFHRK

[9] = Cmax in cynomolgus monkey at 1 mg/kg, po by LC-MS/MS analysis; format: ADME, organism-based, Macaca fascicularis; design: dose 1 mg/kg, route oral; conditions: in vivo
Canis familiaris [10] = assay: Toxicity in iv dosed Beagle dog assessed as effect on mean blood pressure administered via single dose; format: organism-based, Canis lupus familiaris; conditions: in vivo

In the case of `CC[C@H]1[C@@H](O)CC(=O)N1c1ccc(C#N)c(C(F)(F)F)c1`, the MRT [1] is reported as 4.34 h, the Activity (Canis familiaris [2]) is reported as “Non-Toxic” and the Activity (Rattus norvegicus) is reported as 106%. The MRT [3] was 5.21 h, the AUC(0-t) at 24 h [4] was 1160 ng·h/mL and the AUC(0-t) at 24 h [5] was 809 ng·h/mL. For the same molecule, the clearance [6] was 15.6 mL/min/kg, the microsomal CLint at 1 µM [7] was 4 µL/min/mg and the IC50 [8] was over 10 µM. The Cmax [9] was 71.2 ng/mL and the Activity (Canis familiaris [10]) was “Non-Toxic”.

Source: ChEMBL document CHEMBL4020736, “Synthesis and biological evaluation of novel selective androgen receptor modulators (SARMs) Part III: Discovery of 4-(5-oxopyrrolidine-1-yl)benzonitrile derivative 2f as a clinical candidate” (Bioorg Med Chem, 2017)
